Measured values from paper doi:10.1101/685669v2 (biorxiv, 2020).

Columns and labels:
Assay in all cases: fluorogenic peptidase assay
Assay type in all cases: biochemical
ecClpXP [1] = molecular target: T1, ecClpXP (Escherichia coli, UniProt P0A6G7+P0A6H1); details: 0.1 mM Suc-LY-AMC; competitive
ecClpXP [2] = molecular target: T1, ecClpXP; details: substrate Suc-LY-AMC; competitive
ecClpP [3] = molecular target: T2, ecClpP (Escherichia coli, UniProt P0A6G7)
ecClpP [4] = molecular target: T2, ecClpP; remark: listed apart in the source
bsClpYQ = molecular target: T3, bsClpYQ (Bacillus subtilis, UniProt P39070+P39778); details: substrate Cbz-GGL-AMC, ATP present; competitive
T3 sequence (P39070 2-181): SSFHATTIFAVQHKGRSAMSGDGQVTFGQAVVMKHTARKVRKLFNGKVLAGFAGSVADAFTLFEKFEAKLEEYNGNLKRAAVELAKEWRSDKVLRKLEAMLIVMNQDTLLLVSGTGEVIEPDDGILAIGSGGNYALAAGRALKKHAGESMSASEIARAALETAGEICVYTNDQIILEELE
T3 sequence (P39778 1-467): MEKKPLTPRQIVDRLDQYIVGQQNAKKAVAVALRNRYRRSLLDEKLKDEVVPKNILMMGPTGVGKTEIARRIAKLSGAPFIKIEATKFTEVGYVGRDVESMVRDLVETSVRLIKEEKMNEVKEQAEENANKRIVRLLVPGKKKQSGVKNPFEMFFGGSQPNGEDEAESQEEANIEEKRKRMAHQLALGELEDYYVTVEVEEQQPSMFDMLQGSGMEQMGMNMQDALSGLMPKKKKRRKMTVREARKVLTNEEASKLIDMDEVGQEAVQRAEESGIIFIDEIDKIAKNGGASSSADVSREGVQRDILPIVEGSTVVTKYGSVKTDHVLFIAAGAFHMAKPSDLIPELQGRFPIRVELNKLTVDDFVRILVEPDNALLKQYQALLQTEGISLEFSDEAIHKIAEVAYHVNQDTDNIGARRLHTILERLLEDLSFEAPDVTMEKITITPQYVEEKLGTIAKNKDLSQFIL

T2 sequence (P0A6G7 15-207): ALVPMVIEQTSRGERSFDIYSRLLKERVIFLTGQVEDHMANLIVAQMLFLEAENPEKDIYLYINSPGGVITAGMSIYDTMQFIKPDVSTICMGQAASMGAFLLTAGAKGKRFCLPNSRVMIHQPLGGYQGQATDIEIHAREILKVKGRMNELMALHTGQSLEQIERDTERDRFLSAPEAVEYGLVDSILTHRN
T1 sequence (P0A6G7 15-207): as above
T1 sequence (P0A6H1 2-424): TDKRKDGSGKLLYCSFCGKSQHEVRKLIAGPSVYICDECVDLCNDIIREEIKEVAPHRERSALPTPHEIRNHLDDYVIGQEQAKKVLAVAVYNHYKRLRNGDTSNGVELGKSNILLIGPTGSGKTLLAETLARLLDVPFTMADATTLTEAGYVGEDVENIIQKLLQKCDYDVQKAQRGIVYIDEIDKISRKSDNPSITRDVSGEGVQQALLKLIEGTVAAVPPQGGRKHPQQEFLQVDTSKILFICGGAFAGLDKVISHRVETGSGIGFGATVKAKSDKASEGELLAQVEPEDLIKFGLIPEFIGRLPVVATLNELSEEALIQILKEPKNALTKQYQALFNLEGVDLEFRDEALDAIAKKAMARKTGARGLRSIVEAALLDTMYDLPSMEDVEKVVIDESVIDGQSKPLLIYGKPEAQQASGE

IC50 (ecClpXP [1]): 48.6 ± 1 µM
Ki (ecClpXP [2]): 36.7 µM
Ki (ecClpP [3]): 58.8 µM
IC50 (ecClpP [4]): 61 ± 1 µM
Ki (bsClpYQ): 3.2 µM
Compound: CCCCCCc1c(O)c(Cl)cc2c1OC1(C2=O)C(Cl)=C(Cl)C(=O)N1C (racemic) [compound 1, 5-chloro-armeniaspirol A]
